{"source": "patent US11484539B2", "about": "“Compounds and their uses for alleviating menopause-associated symptoms” (Estetra SPRL, priority 2018, dated 2022)", "origin": "cited, not measured here", "system": "postmenopausal women", "settings": "cited from earlier work", "note": "Like-named read-outs stand apart in the source and are kept apart here.", "data": [{"smiles": "C[C@]12CC[C@@H]3c4ccc(O)cc4CC[C@H]3[C@@H]1[C@@H](O)[C@@H](O)[C@@H]2O", "note": "[E4, 1,3,5 (10)-estratrien-3,15alpha,16alpha,17beta-tetrol]", "values": [{"measurement": "Endometrial thickness", "setting": "2 mg estetrol group", "value": "stable"}, {"measurement": "Mean number of hot flushes and sweating", "setting": "2 mg estetrol per day", "value": "decrease"}, {"measurement": "Endometrial thickness", "setting": "10 mg estetrol group", "value": "increasing"}]}]}
